In patent publication US12129246B1, “Hydroquinazoline derivatives for the treatment of a disease or disorder” (Novartis AG, priority 2023, dated 2024):
Read-outs that look alike come from different tables or passages of the source.

Columns and labels:
[1] = target: monkey NPR1 (Macaca fascicularis, UniProt A0A7N9DBT9); assay: Cellular cGMP production assay, monkey NPR1 expressing CHO-K1 cells (CisBio HTRF); format: cell-based; details: for Monkey NPR1 Amax (% of ANP): maximum cGMP production as percentage of the maximum cGMP produced with ANP
How it was run: (§1)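 Cells receive IBMX (1 mM) assay buffer plus test compound over twelve threefold dilutions starting at 30 μM, and cGMP accumulates for 30 min at 37 °C. Lysates are then incubated one hour at room temperature with d2-labelled cGMP and cryptate-labelled antibody before time-resolved fluorescence reading.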

[2] = target: T1, human NPR1 (Homo sapiens, UniProt P16066); assay: Cellular cGMP production assay, human NPR1 expressing CHO-K1 cells (CisBio HTRF); format: cell-based; details: for AC50: cGMP production, 30 min at 37° C., 12-point dose-response from 30 μM; for Human NPR1 Amax (% of ANP): maximum cGMP production as percentage of the maximum cGMP produced with ANP
T1 construct: host or cells: CHO-K1
T1 sequence (P16066 33-1061): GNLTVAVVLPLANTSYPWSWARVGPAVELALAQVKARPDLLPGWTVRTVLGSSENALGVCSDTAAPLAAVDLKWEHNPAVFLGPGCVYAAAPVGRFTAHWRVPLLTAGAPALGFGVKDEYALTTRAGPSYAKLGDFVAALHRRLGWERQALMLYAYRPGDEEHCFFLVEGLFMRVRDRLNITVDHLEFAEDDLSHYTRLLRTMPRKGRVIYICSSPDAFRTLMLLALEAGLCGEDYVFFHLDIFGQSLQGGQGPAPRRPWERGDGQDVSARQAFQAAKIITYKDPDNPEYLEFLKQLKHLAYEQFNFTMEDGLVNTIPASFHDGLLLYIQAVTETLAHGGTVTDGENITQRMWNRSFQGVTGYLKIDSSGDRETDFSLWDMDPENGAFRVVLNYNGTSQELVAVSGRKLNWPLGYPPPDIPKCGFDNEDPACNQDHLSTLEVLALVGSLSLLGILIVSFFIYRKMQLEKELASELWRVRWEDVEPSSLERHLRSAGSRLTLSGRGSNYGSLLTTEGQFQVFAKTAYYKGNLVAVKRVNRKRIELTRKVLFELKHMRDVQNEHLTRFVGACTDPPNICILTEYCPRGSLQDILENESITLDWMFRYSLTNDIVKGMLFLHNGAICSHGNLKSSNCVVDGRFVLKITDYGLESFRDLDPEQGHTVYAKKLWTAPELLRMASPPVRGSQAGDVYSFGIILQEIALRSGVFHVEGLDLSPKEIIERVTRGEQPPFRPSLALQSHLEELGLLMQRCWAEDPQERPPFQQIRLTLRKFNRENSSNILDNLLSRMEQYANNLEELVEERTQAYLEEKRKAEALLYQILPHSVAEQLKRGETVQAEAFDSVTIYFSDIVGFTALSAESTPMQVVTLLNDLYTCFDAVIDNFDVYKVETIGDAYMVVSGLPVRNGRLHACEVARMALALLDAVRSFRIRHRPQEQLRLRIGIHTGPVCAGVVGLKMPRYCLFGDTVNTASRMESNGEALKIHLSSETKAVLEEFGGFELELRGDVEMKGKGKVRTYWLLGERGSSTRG
How it was run: as §1

[3] = cGMP production, monkey NPR1 CHO-K1 cells, 30 min at 37° C., 12-point dose-response from 30 μM, read-out: Monkey NPR1 AC50

Sequence of monkey NPR1 (A0A7N9DBT9 entry or part of it): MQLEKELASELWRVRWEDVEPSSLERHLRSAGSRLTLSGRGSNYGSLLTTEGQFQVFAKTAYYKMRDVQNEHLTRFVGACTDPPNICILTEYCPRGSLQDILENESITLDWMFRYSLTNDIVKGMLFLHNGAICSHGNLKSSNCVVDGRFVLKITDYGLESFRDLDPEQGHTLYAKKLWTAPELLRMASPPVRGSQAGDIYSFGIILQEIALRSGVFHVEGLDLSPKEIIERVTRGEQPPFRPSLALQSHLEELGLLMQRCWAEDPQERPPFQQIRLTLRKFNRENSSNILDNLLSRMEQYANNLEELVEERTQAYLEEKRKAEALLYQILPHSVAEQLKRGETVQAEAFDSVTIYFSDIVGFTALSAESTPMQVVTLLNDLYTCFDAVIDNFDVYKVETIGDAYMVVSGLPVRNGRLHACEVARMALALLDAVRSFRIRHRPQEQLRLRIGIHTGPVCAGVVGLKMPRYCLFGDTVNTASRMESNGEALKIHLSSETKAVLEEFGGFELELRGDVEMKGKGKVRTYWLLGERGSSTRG

Compound | AC50 [1, 3] | Monkey NPR1 Amax (% of ANP) ([1]; monkey NPR1 CHO-K1 cells) | AC50 [2] | Human NPR1 Amax (% of ANP) [2] | AC50 [1]
CC[C@@H](Nc1nc2c(c(N[C@@H](CN3CC4CCC3C4)c3ccc(F)cc3)n1)C[C@H](c1ccccc1)CC2)[C@H]1CC[C@H](C(=O)O)CC1 (stereo partly drawn) [Compound 86, (1R,4r)-4-((1R)-1-(((6R)-4-(((1R)-2-(2-azabicyclo[2.2.1]heptan-2-yl)-1-(4-fluorophenyl)ethyl)amino)-6-phenyl-5,6,7,8-tetrahydroquinazolin-2-yl)amino)propyl)cyclohexane-1-carboxylic acid] | 192 nM | 92.318 % of ANP | 286 nM | 101.050 % of ANP | 
CC[C@H]([C@H]1CC[C@H](C(=O)O)CC1)N(C)c1nc2c(c(N[C@@H](CN3C4CCCC3CC4)c3ccnn3C)n1)C[C@H](c1cccc(F)c1)CC2 [Compound 164, (1R,4r)-4-((1R)-1-(((6R)-4-(((1S)-2-(8-azabicyclo[3.2.1]octan-8-yl)-1-(1-methyl-1H-pyrazol-5-yl)ethyl)amino)-6-(3-fluorophenyl)-5,6,7,8-tetrahydroquinazolin-2-yl)(methyl)amino)propyl)cyclohexane-1-carboxylic acid] |  | 92.193 % of ANP | 1780 nM | 94.088 % of ANP | 946 nM
CC[C@@H](Nc1nc2c(c(N[C@@H](CN3CC4CCC3C4)c3ccccc3)n1)C[C@H](c1ccccc1)CC2)[C@H]1CC[C@H](C(=O)O)CC1 (stereo partly drawn) [Compound 160, (1R,4r)-4-((1R)-1-(((6R)-4-(((1R)-2-(2-azabicyclo[2.2.1]heptan-2-yl)-1-phenylethyl)amino)-6-phenyl-5,6,7,8-tetrahydroquinazolin-2-yl)amino)propyl)cyclohexane-1-carboxylic acid] | 1430 nM | 102.098 % of ANP | 1620 nM | 94.868 % of ANP | 
CC[C@@H](Nc1nc2c(c(N[C@@H](CN3CCCCC3)c3cnn(CC)c3)n1)C[C@H](c1cccc(F)c1)CC2)[C@H]1CC[C@H](C(=O)O)CC1 [Compound 30, (1R,4r)-4-((R)-1-(((R)-4-(((R)-1-(1-ethyl-1H-pyrazol-4-yl)-2-(piperidin-1-yl)ethyl)amino)-6-(3-fluorophenyl)-5,6,7,8-tetrahydroquinazolin-2-yl)amino)propyl)cyclohexane-1-carboxylic acid] | 77 nM | 99.091 % of ANP | 140 nM | 99.863 % of ANP | 
CC[C@@H](Nc1nc2c(c(N[C@@H](CN3CCC[C@H](C)C3)c3cnn(C)c3)n1)C[C@](C)(c1ccc(F)cc1)CC2)[C@H]1CC[C@H](C(=O)O)CC1 [Compound 5, (1R,4r)-4-((R)-1-(((R)-6-(4-fluorophenyl)-6-methyl-4-(((R)-1-(1-methyl-1H-pyrazol-4-yl)-2-((S)-3-methylpiperidin-1-yl)ethyl)amino)-5,6,7,8-tetrahydroquinazolin-2-yl)amino)propyl)cyclohexane-1-carboxylic acid] | 68 nM | 104.503 % of ANP | 72 nM | 85.741 % of ANP | 
CC[C@H]([C@H]1CC[C@H](C(=O)O)CC1)N(C)c1nc2c(c(N[C@@H](CN3C4CCCC3CC4)c3cc(C)n(C)n3)n1)C[C@H](c1cccc(F)c1)CC2 [Compound 88, (1R,4r)-4-((1R)-1-(((6R)-4-(((1S)-2-(8-azabicyclo[3.2.1]octan-8-yl)-1-(1,5-dimethyl-1H-pyrazol-3-yl)ethyl)amino)-6-(3-fluorophenyl)-5,6,7,8-tetrahydroquinazolin-2-yl)(methyl)amino)propyl)cyclohexane-1-carboxylic acid] |  | 94.699 % of ANP | 303 nM | 98.817 % of ANP | 255 nM
CC[C@@H](Nc1nc2c(c(N[C@@H](CN3CCC[C@H](C)C3)c3cnn(C)c3)n1)C[C@](C)(c1ccccc1F)CC2)[C@H]1CC[C@H](C(=O)O)CC1 [Compound 20, (1R,4r)-4-((R)-1-(((R)-6-(2-fluorophenyl)-6-methyl-4-(((R)-1-(1-methyl-1H-pyrazol-4-yl)-2-((S)-3-methylpiperidin-1-yl)ethyl)amino)-5,6,7,8-tetrahydroquinazolin-2-yl)amino)propyl)cyclohexane-1-carboxylic acid] | 60 nM | 92.710 % of ANP | 109 nM | 95.253 % of ANP | 
